Laboratory results published in patent US20030224942A1, “Alkylamino-1,3,5-triazines, processes for their preparation and their use as herbicides and plant growth regulators” (priority 2001, published 2003).

How the values were obtained:
[1] = system: Chenopodium spp., Papaver spp., Polygonum spp., Veronica spp. or Viola spp.; experiment: Post-emergence effect on weeds (greenhouse pot test, visual scoring); type: in vivo, monocotyledonous and dicotyledonous weeds; details: treated at three-leaf stage; visual scoring after about 3 to 4 weeks; application rate of 0.5 kg and less of active substance per hectare
[2] = system: Cyperus spp., Echinochloa spp., Digitaria spp., Sagitaria spp. and Scirpus spp.; experiment: Action on harmful plants in rice (paddy rice conditions, visual scoring); type: in vivo, typical rice weeds (gramineous and broad-leaved); details: applied into the dammed water, visual scoring about three weeks after application
Method in brief: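 Rice and typical gramineous and broad-leaved rice weeds grown in closed pots in greenhouse under paddy conditions (2-3 cm water) to three-leaf stage (Echinochloa crus-galli 1.5-leaf), then treated with compounds. Plants kept under optimum greenhouse conditions throughout; effect scored visually.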

SMILES | herbicidal activity post-emergence against harmful plants [1] | herbicidal activity against harmful plants which are typical for rice crops [2]
C#Cc1cc(CNc2nc(N)nc(C(C)(C)F)n2)ccc1F [Product P16.309] | very good herbicidal activity | very good herbicidal activity
C#Cc1c(F)cc(CNc2nc(N)nc(C(C)(C)F)n2)cc1F [Product P16.352] | very good herbicidal activity | very good herbicidal activity
CC#Cc1cc(CNc2nc(N)nc(C(C)(C)F)n2)ccc1F [Product P16.384] | very good herbicidal activity | very good herbicidal activity
CC#Cc1c(F)cc(CNc2nc(N)nc(C(C)(C)F)n2)cc1F [Product P16.428] | very good herbicidal activity | very good herbicidal activity
CC(C)(F)c1nc(N)nc(NCc2ccc(F)c(C3CC3)c2)n1 [Product P16.916] | very good herbicidal activity | very good herbicidal activity
CC(C)(F)c1nc(N)nc(NCc2cc(F)c(C3CC3)c(F)c2)n1 [Product P16.960] | very good herbicidal activity | very good herbicidal activity
CC(C)(F)c1nc(N)nc(NCc2cccc(C(F)=C(F)F)c2)n1 [Product P16.1567] | very good herbicidal activity | very good herbicidal activity
CC(C)(F)c1nc(N)nc(NCc2ccc(C(F)=C(F)F)cc2)n1 [Product P16.1568] | very good herbicidal activity | very good herbicidal activity
C#Cc1cccc(CNc2nc(N)nc(C(C)(C)F)n2)c1 [Product P16.1579] | very good herbicidal activity | very good herbicidal activity
C#Cc1ccc(CNc2nc(N)nc(C(C)(C)F)n2)cc1 [Product P16.1580] | very good herbicidal activity | very good herbicidal activity
CC#Cc1cccc(CNc2nc(N)nc(C(C)(C)F)n2)c1 [Product P16.1582] | very good herbicidal activity | very good herbicidal activity
CC#Cc1ccc(CNc2nc(N)nc(C(C)(C)F)n2)cc1 [Product P16.1583] | very good herbicidal activity | very good herbicidal activity
CC(C)(F)c1nc(N)nc(NCc2cccc(C3CC3)c2)n1 [Product P16.1603] | very good herbicidal activity | very good herbicidal activity
CC(C)(F)c1nc(N)nc(NCc2ccc(C3CC3)cc2)n1 [Product P16.1604] | very good herbicidal activity | very good herbicidal activity
CC(Nc1nc(N)nc(C(C)(C)F)n1)c1ccc(F)c(C(F)=C(F)F)c1 (centres unmarked) [Product P17.5] | very good herbicidal activity | very good herbicidal activity
CC(Nc1nc(N)nc(C(C)(C)F)n1)c1cc(F)c(C(F)=C(F)F)c(F)c1 (centres unmarked) [Product P17.49] | very good herbicidal activity | very good herbicidal activity
C#Cc1cc(C(C)Nc2nc(N)nc(C(C)(C)F)n2)ccc1F (centres unmarked) [Product P17.309] | very good herbicidal activity | very good herbicidal activity
C#Cc1ccc(C(C)Nc2nc(N)nc(C(C)(C)F)n2)cc1C (centres unmarked) [Product P17.335] | very good herbicidal activity | very good herbicidal activity
C#Cc1c(C)cc(C(C)Nc2nc(N)nc(C(C)(C)F)n2)cc1C (centres unmarked) [Product P17.348] | very good herbicidal activity | very good herbicidal activity

SMILES | herbicidal activity post-emergence against harmful plants [1] | herbicidal activity against harmful plants which are typical for rice crops [2]
C#Cc1c(F)cc(C(C)Nc2nc(N)nc(C(C)(C)F)n2)cc1F (centres unmarked) [Product P17.352] | very good herbicidal activity | very good herbicidal activity
C#Cc1ccc(C(C)Nc2nc(N)nc(C(C)(C)F)n2)cc1C#C (centres unmarked) [Product P17.358] | very good herbicidal activity | very good herbicidal activity
C#Cc1cc(C#C)cc(C(C)Nc2nc(N)nc(C(C)(C)F)n2)c1 (centres unmarked) [Product P17.369] | very good herbicidal activity | very good herbicidal activity
CC#Cc1cc(C(C)Nc2nc(N)nc(C(C)(C)F)n2)ccc1F (centres unmarked) [Product P17.384] | very good herbicidal activity | very good herbicidal activity
CC#Cc1c(C)cc(C(C)Nc2nc(N)nc(C(C)(C)F)n2)cc1C (centres unmarked) [Product P17.424] | very good herbicidal activity | very good herbicidal activity
CC#Cc1c(F)cc(C(C)Nc2nc(N)nc(C(C)(C)F)n2)cc1F (centres unmarked) [Product P17.428] | very good herbicidal activity | very good herbicidal activity
CC#Cc1cc(C(C)Nc2nc(N)nc(C(C)(C)F)n2)cc(C#CC)c1F (centres unmarked) [Product P17.450] | very good herbicidal activity | very good herbicidal activity
C=C=Cc1c(F)cc(C(C)Nc2nc(N)nc(C(C)(C)F)n2)cc1F (centres unmarked) [Product P17.656] | very good herbicidal activity | very good herbicidal activity
CCCCC#Cc1cc(C(C)Nc2nc(N)nc(C(C)(C)F)n2)ccc1F (centres unmarked) [Product P17.688] | very good herbicidal activity | very good herbicidal activity
CCCCC#Cc1c(C)cc(C(C)Nc2nc(N)nc(C(C)(C)F)n2)cc1C (centres unmarked) [Product P17.728] | very good herbicidal activity | very good herbicidal activity
CC(F)C#Cc1cc(C(C)Nc2nc(N)nc(C(C)(C)F)n2)ccc1F (centres unmarked) [Product P17.764] | very good herbicidal activity | very good herbicidal activity
CC(O)C#Cc1cc(C(C)Nc2nc(N)nc(C(C)(C)F)n2)ccc1F (centres unmarked) [Product P17.840] | very good herbicidal activity | very good herbicidal activity
CC(Nc1nc(N)nc(C(C)(C)F)n1)c1ccc(F)c(C2CC2)c1 (centres unmarked) [Product P17.916] | very good herbicidal activity | very good herbicidal activity
CC(Nc1nc(N)nc(C(C)(C)F)n1)c1cc(F)c(C2CC2)c(F)c1 (centres unmarked) [Product P17.960] | very good herbicidal activity | very good herbicidal activity
CC(Nc1nc(N)nc(C(C)(C)F)n1)c1cccc(C(F)=C(F)F)c1 (centres unmarked) [Product P17.1567] | very good herbicidal activity | very good herbicidal activity
CC(Nc1nc(N)nc(C(C)(C)F)n1)c1ccc(C(F)=C(F)F)cc1 (centres unmarked) [Product P17.1568] | very good herbicidal activity | very good herbicidal activity
C#Cc1cccc(C(C)Nc2nc(N)nc(C(C)(C)F)n2)c1 (centres unmarked) [Product P17.1579] | very good herbicidal activity | very good herbicidal activity
C#Cc1ccc(C(C)Nc2nc(N)nc(C(C)(C)F)n2)cc1 (centres unmarked) [Product P17.1580] | very good herbicidal activity | very good herbicidal activity
